Consider 8 compounds from article PMC3839579 (Food chemistry, 2012).

Data set [1] is classed as in vitro ADME, human. The following applies: preliminary analysis.
Data set [2] is described as follows: Stability of cyanidin chloride, PCA and PGA in saliva. The class given is in vitro ADME, human.
A short description of data set [3]: Stability of cyanidin chloride in acidified water. In kind it is physicochemical.
The format of data set [4] is in vitro ADME, human. Particulars: individual glucosides in RdGrp extract, chlorhexidine rinse.

For `OC[C@H]1O[C@@H](Oc2cc3c(O)cc(O)cc3[o+]c2-c2ccc(O)c(O)c2)[C@H](O)[C@@H](O)[C@@H]1O` [Cy-3-glu, Cyanidin-3-O-glucoside], the “Chalcone glucosides of Cy as share of the original amount incubated in saliva ex vivo” value in data set [1] is given as no more than 30%.
On to `Oc1cc(O)c2cc(O)c(-c3ccc(O)c(O)c3)[o+]c2c1` [CyCl, cyanidin chloride], for which the “Cyanidin aglycone degraded upon addition to intact saliva” value in data set [2] (human, 0 min, 25 nmol/L) is greater than 90%. Further, the “PCA as share of the degraded CyCl in saliva” value in data set [2] (human, 0 min, 25 nmol/mL) is given as 15.3%; in data set [2] (human, 60 min, 25 nmol/mL) it was 9.6%. In addition, the “CyCl recovered immediately after addition to acidified water” value in data set [3] (0 min) is reported as “Greater than 86%”. The “CyCl lost after incubation in acidified water” value in data set [3] (60 min) is recorded as “greater than 88%”.
Turning to `OC[C@H]1O[C@@H](Oc2cc3c(O)cc(O)cc3[o+]c2-c2cc(O)c(O)c(O)c2)[C@H](O)[C@@H](O)[C@@H]1O` [Dp, Delphinidin-3-O-glucoside], in data set [4], the “Decrease of degradation in saliva after antibacterial treatment” value (“Decrease of degradation in saliva” for short) is 30%.
For the compound `COc1cc(-c2[o+]c3cc(O)cc(O)c3cc2O[C@@H]2O[C@H](CO)[C@@H](O)[C@H](O)[C@H]2O)cc(OC)c1O` [Mv, Malvidin-3-O-glucoside], the “Decrease of degradation in saliva” value in data set [4] was determined as 50%.
Compound `O=C(O)c1ccc(O)c(O)c1` [PCA, protocatechuic acid] had a recovery at 60 min, 25 nmol/mL in data set [2] (human) of 90%.
`O=Cc1c(O)cc(O)cc1O` [PGA, phloroglucinol aldehyde]: in data set [2] (25 nmol/mL, 37 °C, 60 min), the “Recovery after incubation in intact saliva” value amounted to 43%.
On to `COc1cc(-c2[o+]c3cc(O)cc(O)c3cc2O[C@@H]2O[C@H](CO)[C@@H](O)[C@H](O)[C@H]2O)ccc1O` [Pn, Peonidin-3-O-glucoside], for which the “Decrease of degradation in saliva” value in data set [4] is on record as 50%.
With `COc1cc(-c2[o+]c3cc(O)cc(O)c3cc2O[C@@H]2O[C@H](CO)[C@@H](O)[C@H](O)[C@H]2O)cc(O)c1O` [Pt-3-glu, Petunidin-3-O-glucoside], the “Decrease of degradation in saliva” value in data set [4] is listed as 10%.
